Converted amounts (≈) assume the structure as drawn.
Key:
THP-1 [1] = test: Antiinflammatory activity against human THP1 cells assessed as inhibition of LPS induced TNF-alpha at 40 uM preincubated for 30 mins followed by LPS stimulation measured after 24 hrs by ELISA relative to control; assay type: functional
RAW264.7 [2] = test: Antiinflammatory activity against mouse RAW264.7 cells assessed as inhibition of LPS induced COX2 at 30 uM preincubated for 1 hr followed by LPS stimulation measured after 18 hrs relative to control; assay type: functional
RAW264.7 [3] = test: Antiinflammatory activity against mouse RAW264.7 cells assessed as inhibition of LPS induced iNOS at 30 uM preincubated for 1 hr followed by LPS stimulation measured after 18 hrs relative to control; assay type: functional
[4] = molecular target: T1, Prostaglandin G/H synthase 2 (Ovis aries, UniProt P79208); test: Inhibition of ovine COX2
T1 sequence (P79208 whole entry): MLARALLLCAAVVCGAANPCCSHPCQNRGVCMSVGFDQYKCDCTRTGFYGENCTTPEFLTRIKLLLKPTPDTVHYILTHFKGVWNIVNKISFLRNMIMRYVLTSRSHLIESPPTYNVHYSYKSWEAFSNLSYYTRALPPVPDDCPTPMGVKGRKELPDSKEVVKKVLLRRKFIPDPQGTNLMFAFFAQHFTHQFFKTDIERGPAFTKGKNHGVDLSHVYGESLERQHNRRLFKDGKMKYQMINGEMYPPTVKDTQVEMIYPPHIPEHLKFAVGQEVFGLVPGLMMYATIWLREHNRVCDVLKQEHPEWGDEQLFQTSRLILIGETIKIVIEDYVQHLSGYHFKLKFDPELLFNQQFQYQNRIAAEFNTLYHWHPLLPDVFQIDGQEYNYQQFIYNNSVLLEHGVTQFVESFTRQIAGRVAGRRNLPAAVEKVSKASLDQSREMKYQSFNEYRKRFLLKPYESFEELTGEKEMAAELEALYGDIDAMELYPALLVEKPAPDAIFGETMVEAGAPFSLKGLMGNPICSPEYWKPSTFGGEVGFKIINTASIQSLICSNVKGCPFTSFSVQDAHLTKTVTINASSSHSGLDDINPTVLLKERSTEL

[5] = molecular target: T2, Prostaglandin G/H synthase 1 (Ovis aries, UniProt P05979); test: Inhibition of ovine COX1
T2 sequence (P05979 whole entry): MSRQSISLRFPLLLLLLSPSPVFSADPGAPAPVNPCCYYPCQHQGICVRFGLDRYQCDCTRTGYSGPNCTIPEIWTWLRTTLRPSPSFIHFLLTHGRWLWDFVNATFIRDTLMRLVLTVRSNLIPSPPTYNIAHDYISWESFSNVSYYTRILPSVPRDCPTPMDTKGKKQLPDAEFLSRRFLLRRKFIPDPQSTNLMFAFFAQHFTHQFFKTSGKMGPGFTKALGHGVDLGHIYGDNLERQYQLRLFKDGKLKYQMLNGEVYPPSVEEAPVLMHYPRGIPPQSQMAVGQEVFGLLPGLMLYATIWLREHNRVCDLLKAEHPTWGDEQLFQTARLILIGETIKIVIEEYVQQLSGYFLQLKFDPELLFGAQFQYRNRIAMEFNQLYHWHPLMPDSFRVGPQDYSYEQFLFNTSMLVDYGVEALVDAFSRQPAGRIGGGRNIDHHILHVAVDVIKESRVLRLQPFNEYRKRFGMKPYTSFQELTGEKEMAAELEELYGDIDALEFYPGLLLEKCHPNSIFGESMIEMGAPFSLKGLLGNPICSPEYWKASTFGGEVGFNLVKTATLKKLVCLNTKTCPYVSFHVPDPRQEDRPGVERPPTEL

[6] = molecular target: T3, Polyunsaturated fatty acid 5-lipoxygenase (Homo sapiens) (UniProt P09917); test: Inhibition of 5-lox (unknown origin) at 20 uM relative to control
T3 sequence (whole entry): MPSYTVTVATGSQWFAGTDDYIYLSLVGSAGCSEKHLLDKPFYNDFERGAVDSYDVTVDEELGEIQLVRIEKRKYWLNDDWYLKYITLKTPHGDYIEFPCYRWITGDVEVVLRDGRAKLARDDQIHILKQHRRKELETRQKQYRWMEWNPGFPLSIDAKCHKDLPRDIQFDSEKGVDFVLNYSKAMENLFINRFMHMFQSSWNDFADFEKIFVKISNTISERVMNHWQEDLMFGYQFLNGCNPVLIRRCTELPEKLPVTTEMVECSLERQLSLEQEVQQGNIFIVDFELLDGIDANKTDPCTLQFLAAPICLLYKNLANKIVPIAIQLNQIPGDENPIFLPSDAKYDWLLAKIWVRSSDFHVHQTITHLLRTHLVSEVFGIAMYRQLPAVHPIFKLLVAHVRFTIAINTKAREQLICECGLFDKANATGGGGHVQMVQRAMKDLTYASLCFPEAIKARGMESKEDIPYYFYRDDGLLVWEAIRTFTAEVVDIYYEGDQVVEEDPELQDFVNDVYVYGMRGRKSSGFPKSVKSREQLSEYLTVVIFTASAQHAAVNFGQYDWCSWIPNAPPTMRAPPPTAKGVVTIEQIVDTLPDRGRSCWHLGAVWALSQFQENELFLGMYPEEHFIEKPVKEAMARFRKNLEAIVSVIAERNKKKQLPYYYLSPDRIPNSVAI

[7] = molecular target: Nitric oxide synthase, inducible (Homo sapiens, UniProt P35228); test: Inhibition of iNOS (unknown origin)
Interleukin-1 beta = Interleukin-1 beta (Homo sapiens, UniProt P01584); test: Inhibition of IL1-beta (unknown origin)
RAW264.7 [8] = test: Antiinflammatory activity in mouse RAW264.7 cells assessed as inhibition of LPS-induced nitric oxide production after 24 hrs; assay type: functional, cell-based; settings: RAW264.7, 24 h
[9] = molecular target: T4, Prostaglandin G/H synthase 2 (Homo sapiens) (UniProt P35354); test: Inhibition of COX2 (unknown origin) at […] using arachidonic acid as substrate preincubated for 15 mins followed by arachidonic acid addition measured after 2 mins by ELISA relative to control
T4 sequence (whole entry): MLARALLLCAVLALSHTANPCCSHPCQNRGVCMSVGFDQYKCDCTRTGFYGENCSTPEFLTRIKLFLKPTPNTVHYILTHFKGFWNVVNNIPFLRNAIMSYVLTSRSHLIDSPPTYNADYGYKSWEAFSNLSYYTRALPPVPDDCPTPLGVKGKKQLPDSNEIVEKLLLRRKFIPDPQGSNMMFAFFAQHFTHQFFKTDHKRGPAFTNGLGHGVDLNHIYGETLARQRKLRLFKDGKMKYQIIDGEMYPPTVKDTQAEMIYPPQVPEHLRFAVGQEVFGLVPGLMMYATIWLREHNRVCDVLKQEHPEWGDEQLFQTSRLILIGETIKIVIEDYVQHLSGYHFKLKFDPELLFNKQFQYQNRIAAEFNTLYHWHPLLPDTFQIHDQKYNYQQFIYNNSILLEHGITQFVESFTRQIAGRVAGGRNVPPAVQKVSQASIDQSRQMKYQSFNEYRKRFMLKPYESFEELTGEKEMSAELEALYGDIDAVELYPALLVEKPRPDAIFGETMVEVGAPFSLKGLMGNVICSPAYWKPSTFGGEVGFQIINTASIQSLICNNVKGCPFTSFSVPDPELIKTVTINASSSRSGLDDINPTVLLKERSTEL

[10] = Inhibition of ovine 5-lox by EIA; parameters: species or system Ovis aries
[11] = molecular target: T1, Prostaglandin G/H synthase 2; test: Inhibition of ovine COX2 by EIA
RAW264.7 [12] = test: Antiinflammatory activity in mouse RAW264.7 cells assessed as inhibition of LPS-induced nitric oxide production; assay type: functional, cell-based
BV-2 = test: Antiinflammatory activity in mouse BV2 cells assessed as inhibition of LPS-induced nitric oxide production; assay type: functional, cell-based
[13] = molecular target: T1, Prostaglandin G/H synthase 2; test: Inhibition of ovine COX2 using arachidonic acid as substrate by enzyme immunoassay
RAW264.7 [14] = test: Antiinflammatory activity in mouse RAW264.7 cells assessed as inhibition of LPS-induced nitric oxide production at 10 uM preincubated for 2 hrs followed by LPS stimulation measured after 24 hrs by Griess reagent based assay relative to control; assay type: functional
RAW264.7 [15] = test: Antiinflammatory activity in mouse RAW264.7 cells assessed as inhibition of LPS-induced nitric oxide production at 20 uM preincubated for 2 hrs followed by LPS stimulation measured after 24 hrs by Griess reagent based assay relative to control; assay type: functional
RAW264.7 [16] = test: Antiinflammatory activity in mouse RAW264.7 cells assessed as inhibition of LPS-induced nitric oxide production at 50 uM preincubated for 2 hrs followed by LPS stimulation measured after 24 hrs by Griess reagent based assay relative to control; assay type: functional
[17] = Inhibition of soybean 15-LOX using linoleic acid as substrate preincubated for 5 mins followed by substrate addition and measured after 20 mins by spectrophotometric analysis; parameters: species or system Glycine max
RAW264.7 [18] = test: Antiinflammatory activity in mouse RAW264.7 cells assessed as inhibition of LPS-induced nitric oxide production at […] after 24 hrs by Griess reagent based assay relative to control; assay type: functional; parameters: dose or concentration left out as unconfirmed; settings: RAW264.7, 24 h
[19] = molecular target: T4, Prostaglandin G/H synthase 2 (Homo sapiens); test: Inhibition of COX2 (unknown origin) at 20 uM relative to control
[20] = molecular target: Prostaglandin G/H synthase 2 (Homo sapiens) (UniProt P35354); test: Inhibition of COX2 (unknown origin) at 0.01 mM using arachidonic acid as substrate preincubated for 15 mins followed by arachidonic acid addition measured after […] by ELISA relative to control
THP-1 [21] = test: Antiinflammatory activity against human THP1 cells assessed as inhibition of LPS induced TNF-alpha at 100 uM preincubated for 30 mins followed by LPS stimulation measured after 24 hrs by ELISA relative to control; assay type: functional
RAW264.7 [22] = test: Antiinflammatory activity in mouse RAW264.7 cells assessed as inhibition of nitric oxide production; assay type: functional, cell-based

Chain of Interleukin-1 beta (P01584 117-269 limits assumed): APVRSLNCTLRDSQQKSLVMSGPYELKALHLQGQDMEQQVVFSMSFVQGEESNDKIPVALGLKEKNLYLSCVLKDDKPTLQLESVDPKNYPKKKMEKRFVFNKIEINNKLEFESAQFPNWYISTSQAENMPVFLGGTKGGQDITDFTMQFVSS
Chain of Nitric oxide synthase, inducible (P35228 whole entry): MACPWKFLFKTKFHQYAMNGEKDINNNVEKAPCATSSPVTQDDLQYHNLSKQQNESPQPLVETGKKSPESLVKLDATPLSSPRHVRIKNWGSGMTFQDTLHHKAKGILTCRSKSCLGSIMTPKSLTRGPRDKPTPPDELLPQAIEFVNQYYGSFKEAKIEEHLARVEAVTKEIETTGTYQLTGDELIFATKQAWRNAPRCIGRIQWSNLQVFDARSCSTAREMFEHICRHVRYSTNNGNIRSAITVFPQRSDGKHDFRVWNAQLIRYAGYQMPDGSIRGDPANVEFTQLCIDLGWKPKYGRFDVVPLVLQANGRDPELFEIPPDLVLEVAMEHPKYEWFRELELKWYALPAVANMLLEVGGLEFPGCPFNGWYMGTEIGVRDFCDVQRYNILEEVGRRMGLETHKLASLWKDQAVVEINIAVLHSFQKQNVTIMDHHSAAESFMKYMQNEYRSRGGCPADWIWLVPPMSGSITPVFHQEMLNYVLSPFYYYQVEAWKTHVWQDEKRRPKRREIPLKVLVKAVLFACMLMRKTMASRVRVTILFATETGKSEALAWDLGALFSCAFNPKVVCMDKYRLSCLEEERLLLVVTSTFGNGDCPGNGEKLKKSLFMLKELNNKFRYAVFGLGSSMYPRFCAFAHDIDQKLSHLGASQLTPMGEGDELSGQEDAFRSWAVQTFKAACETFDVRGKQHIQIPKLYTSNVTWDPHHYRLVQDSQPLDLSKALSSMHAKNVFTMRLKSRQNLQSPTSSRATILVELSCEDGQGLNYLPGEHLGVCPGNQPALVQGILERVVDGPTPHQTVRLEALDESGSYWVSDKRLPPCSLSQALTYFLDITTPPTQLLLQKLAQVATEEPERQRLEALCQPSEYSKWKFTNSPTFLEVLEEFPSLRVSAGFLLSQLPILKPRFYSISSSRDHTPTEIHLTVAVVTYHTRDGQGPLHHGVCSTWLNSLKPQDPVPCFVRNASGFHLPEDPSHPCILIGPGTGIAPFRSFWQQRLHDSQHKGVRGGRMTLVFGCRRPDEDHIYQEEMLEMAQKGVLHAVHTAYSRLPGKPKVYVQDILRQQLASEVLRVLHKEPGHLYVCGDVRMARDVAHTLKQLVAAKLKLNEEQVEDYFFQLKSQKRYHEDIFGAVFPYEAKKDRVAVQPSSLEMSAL

`COc1c(O)cc2c(=O)oc3c(OC)c(O[C@@H]4O[C@H](CO)[C@@H](O)[C@H](O)[C@H]4O)cc4c(=O)oc1c2c34` showed an inhibition at 40 µM (THP-1 [1]) of 47.8%.

Compound `CC1(C)CC[C@]2(C(=O)O[C@@H]3O[C@H](CO)[C@@H](O)[C@H](O)[C@H]3O)CC[C@]3(C)C(=CC[C@@H]4[C@@]5(C)CC[C@H](O[C@@H]6OC[C@@H](O)[C@H](O)[C@H]6O[C@@H]6O[C@H](CO)[C@@H](O)[C@H](O)[C@H]6O)C(C)(C)[C@@H]5CC[C@]43C)[C@@H]2C1` has an inhibition at 30 µM (RAW264.7 [2]) of 54.6% and an inhibition at 30 µM (RAW264.7 [3]) of 88%.

In the case of `O=C(OC1Cc2c(O)cc(O)cc2OC1c1cc(O)c(O)c(O)c1)c1cc(O)c(O)c(O)c1` (centres undefined), the inhibition at 40 µM (THP-1 [1]) is reported as 39.1%.

In the case of `CC(C)=CCCC(C(=O)O)C1CNC(=N)N1` (centres undefined), the IC50 [4] is reported as 830 µM and the IC50 [5] is reported as 300 µM.

With `COc1cc(C2Oc3cc(/C=C/COC(=O)CC(C)C)cc(OC)c3OC2COC(=O)CC(C)C)cc(OC)c1O` (centres undefined) the inhibition [6] was 16.1%.

Compound `C/C=C(\C)C(=O)O[C@H]1[C@H](OC(C)=O)[C@@]23C[C@@]1(O)O[C@H]1C[C@]4(C)C(=CC[C@H]4c4ccoc4)[C@](C)(C(=O)C[C@H]2C(C)C)C13` (some centres undefined) has an IC50 [7] of 7.8 µM and an IC50 (Interleukin-1 beta) of 7.8 µM.

Compound `C=CC(C)(CCC=C(C)C)c1c(O)cc2c(c1O)C(=O)C[C@@H](c1ccc(O)c(O)c1)O2` (some centres undefined) has an IC50 (RAW264.7 [8]) of 3.32 µM.

With `COc1cc(C2OCC3C(c4cc(OC)c(O)c(OC)c4)OCC23)cc(OC)c1O` (centres undefined) the inhibition [6] was 28.5%.

For `O=C(/C=C/CCc1ccc(O)cc1)CCc1ccc(O)cc1`, the inhibition [9] was 98.4%.

Work on `CC(C)=CCC/C(C)=C/Cc1c(O)cc(O)c(C(=O)C(C)C)c1O` yielded an IC50 [10] of 2.2 µM and an IC50 [11] of 29.9 µM.

`C=C1CC[C@]2(C(=O)O[C@@H]3O[C@H](CO)[C@@H](O)[C@H](O)[C@H]3O)CC[C@]3(C)C(=CC[C@@H]4[C@@]5(C)CC[C@H](O[C@@H]6OC[C@@H](O)[C@H](O)[C@H]6O[C@@H]6O[C@H](CO)[C@@H](O)[C@H](O)[C@H]6O)C(C)(C)[C@@H]5CC[C@]43C)[C@@H]2[C@H]1C` showed an inhibition at 30 µM (RAW264.7 [2]) of 40.9% and an inhibition at 30 µM (RAW264.7 [3]) of 75.9%.

With `C=C1[C@@H]([C@@]2(C)[C@@H](O)CC(=O)C(C)(C)[C@@H]2[C@@H](O)C(=O)OC)CC[C@@]2(C)[C@H](C3=C[C@@H](O)CC3=O)CC(=O)C[C@]12O` the IC50 (RAW264.7 [12]) was 5.04 µM and the IC50 (BV-2) was 4.97 µM.

In the case of `CCOC(=O)[C@H](CO)NC(=O)c1cccc(O)c1O`, the IC50 [13] is reported as 2.8 µM.

`COc1cc(/C=C/c2ccccc2)c(C(=O)O)c(O)c1CC=C(C)C` gave an inhibition at 10 µM (RAW264.7 [14]) of 21.2%, an inhibition at 20 µM (RAW264.7 [15]) of 30.6% and an inhibition at 50 µM (RAW264.7 [16]) of 40.9%.

Work on `O=c1c2cc(O)c(O)cc2oc2cc(O)cc(O)c12` yielded an IC50 [17] of 0.04461 µg/mL (≈ 0.171 µM) and an inhibition (RAW264.7 [18]) of 70.8%.

In the case of `CCCCCC(=O)/C=C/C=C\CCCCCCCC(=O)O`, the inhibition [19] is reported as 16.6%.

`C=C(C)[C@H](CC=C(C)C)C[C@]12C[C@H](CC=C(C)C)C(C)(C)[C@](CC=C(C)C)(C(=O)C(C(=O)c3ccc(O)c(O)c3)=C1O)C2=O` showed an IC50 [17] of 0.04305 µg/mL (≈ 0.0714 µM).

Work on `CC1(C)NC(CCc2ccc(O)cc2)CC(=O)C1Cc1ccc(O)cc1` (centres undefined) yielded an inhibition [20] of 83.3%.

`C[C@@H]1O[C@@H](Oc2c(-c3cc(O)c(O)c(O)c3)oc3cc(O)cc(O)c3c2=O)[C@H](O)[C@H](O)[C@H]1O` gave an inhibition at 100 µM (THP-1 [21]) of 19.5%.

Work on `COc1cc2c(cc1C)C1=C(C)C(=O)OC1C(O)C2C` (centres undefined) yielded an IC50 (RAW264.7 [22]) of 51.9 µM.
